Source: US8440710B2, “HSL inhibitors useful in the treatment of diabetes” (Hoffmann-La Roche Inc., priority 2009, dated 2013)

Each compound was assayed against T1, human HSL (Homo sapiens, UniProt Q05469) (assay: Human Hormone-Sensitive Lipase (HSL) enzyme inhibition assay (colorimetric, DMPT substrate)). Conditions: human full length HSL-His6, 2,3-dimercapto-1-propanol tributyrate substrate, 37° C. 20 minutes, absorbance at 405 nm; read-out: HSL hum IC50.
T1 construct: generate a full length human HSL ORF with a 3′-His6 tag; made in house; host or cells: High 5 insect cells (baculovirus, pFast-BAC)
T1 sequence (Q05469 1-1076): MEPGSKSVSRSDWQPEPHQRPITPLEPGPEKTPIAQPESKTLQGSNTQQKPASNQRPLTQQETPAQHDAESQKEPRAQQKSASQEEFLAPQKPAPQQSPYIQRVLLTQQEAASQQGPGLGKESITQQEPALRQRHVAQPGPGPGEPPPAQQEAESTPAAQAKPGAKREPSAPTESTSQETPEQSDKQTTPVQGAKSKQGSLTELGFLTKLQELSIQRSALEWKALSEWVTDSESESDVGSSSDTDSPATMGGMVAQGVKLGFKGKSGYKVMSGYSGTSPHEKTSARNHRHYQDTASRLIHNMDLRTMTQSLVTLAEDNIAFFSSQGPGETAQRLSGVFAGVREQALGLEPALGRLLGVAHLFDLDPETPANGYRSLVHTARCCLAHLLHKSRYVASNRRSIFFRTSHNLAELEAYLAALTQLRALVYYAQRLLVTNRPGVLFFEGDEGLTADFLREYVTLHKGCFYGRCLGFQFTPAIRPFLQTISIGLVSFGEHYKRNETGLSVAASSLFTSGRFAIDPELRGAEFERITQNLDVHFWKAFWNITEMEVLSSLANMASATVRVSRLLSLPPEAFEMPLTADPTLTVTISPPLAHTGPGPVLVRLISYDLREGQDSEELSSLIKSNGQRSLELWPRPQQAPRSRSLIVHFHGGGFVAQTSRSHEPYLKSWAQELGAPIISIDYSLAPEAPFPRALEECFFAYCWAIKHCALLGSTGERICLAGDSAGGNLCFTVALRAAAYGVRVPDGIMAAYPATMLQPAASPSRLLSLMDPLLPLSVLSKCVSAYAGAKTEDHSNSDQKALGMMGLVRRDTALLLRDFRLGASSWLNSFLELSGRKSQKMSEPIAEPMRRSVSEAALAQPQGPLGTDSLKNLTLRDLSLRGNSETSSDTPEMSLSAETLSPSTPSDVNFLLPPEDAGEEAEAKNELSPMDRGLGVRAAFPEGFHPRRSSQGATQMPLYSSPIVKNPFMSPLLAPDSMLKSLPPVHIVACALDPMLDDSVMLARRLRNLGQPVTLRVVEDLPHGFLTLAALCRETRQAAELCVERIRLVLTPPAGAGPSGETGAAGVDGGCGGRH
Type: biochemical
In short: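 Full-length human HSL with C-terminal His6, expressed in baculovirus-infected High 5 cells and Ni-NTA purified, was added (15 ug/ml stock) to 1.5 mM DMPT in 100 mM MOPS pH 7.2, 0.2 mg/ml fatty acid-free BSA containing compound. After 20 min at 37 °C, DTNB with SDS/Triton X-100 was added; A405 read after 15 min at RT.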

Structure (SMILES) | IC50
CCc1ccc(N2CC[C@]3(CC[C@](O)(COc4ccccc4)CC3)C2=O)cc1 [Example 227, (5α,8β)-2-(4-Ethyl-phenyl)-8-hydroxy-8-phenoxymethyl-2-aza-spiro[4.5]decan-1-one] | 700 nM
CCc1ccc(N2CC[C@]3(CC[C@@](O)(COCCOC)CC3)C2=O)cc1 [Example 229, (5α,8α)-2-(4-Ethyl-phenyl)-8-hydroxy-8-(2-methoxy-ethoxymethyl)-2-aza-spiro[4.5]decan-1-one] | 130 nM
CCc1ccc(N2CC[C@]3(CC[C@](O)(COCC(F)(F)F)CC3)C2=O)cc1 [Example 230, (5α,8β)-2-(4-Ethyl-phenyl)-8-hydroxy-8-(2,2,2-trifluoro-ethoxymethyl)-2-aza-spiro[4.5]decan-1-one] | 400 nM
O=C1N(c2ccc(OCC(F)(F)F)cc2)CC[C@]12CC[C@](O)(COCC(F)(F)F)CC2 [Example 232, (5α,8β)-8-Hydroxy-8-(2,2,2-trifluoro-ethoxymethyl)-2-[4-(2,2,2-trifluoro-ethoxy)-phenyl]-2-aza-spiro[4.5]decan-1-one] | 290 nM
CCCOC[C@]1(O)CC[C@@]2(CCN(c3ccc(OCC(F)(F)F)cc3)C2=O)CC1 [Example 235, (5α,8β)-8-Hydroxy-8-propoxymethyl-2-[4-(2,2,2-trifluoro-ethoxy)-phenyl]-2-aza-spiro[4.5]decan-1-one] | 630 nM
CCCCOC[C@]1(O)CC[C@@]2(CCN(c3ccc(OCC(F)(F)F)cc3)C2=O)CC1 [Example 237, (5α,8β)-8-Butoxymethyl-8-hydroxy-2-[4-(2,2,2-trifluoro-ethoxy)-phenyl]-2-aza-spiro[4.5]decan-1-one] | 270 nM
CCCCOC[C@]1(O)CC[C@]2(CCN(c3ccc(OCC(F)(F)F)cc3)C2=O)CC1 [Example 238, (5α,8α)-8-Butoxymethyl-8-hydroxy-2-[4-(2,2,2-trifluoro-ethoxy)-phenyl]-2-aza-spiro[4.5]decan-1-one] | 20 nM
O=C1N(c2ccc(OCC(F)(F)F)cc2)CC[C@]12CC[C@](O)(COc1ccccc1)CC2 [Example 239, (5α,8β)-8-Hydroxy-8-phenoxymethyl-2-[4-(2,2,2-trifluoro-ethoxy)-phenyl]-2-aza-spiro[4.5]decan-1-one] | 140 nM
O=C1N(c2ccc(OCC(F)(F)F)cc2)CC[C@]12CC[C@](O)(COCc1ccccc1)CC2 [Example 241, (5α,8β)-8-Benzyloxymethyl-8-hydroxy-2-[4-(2,2,2-trifluoro-ethoxy)-phenyl]-2-aza-spiro[4.5]decan-1-one] | 90 nM
O=C1N(c2ccc(OCC(F)(F)F)cc2)CC[C@]12CC[C@](O)(COCC(F)F)CC2 [Example 243, (5α,8β)-8-(2,2-Difluoro-ethoxymethyl)-8-hydroxy-2-[4-(2,2,2-trifluoro-ethoxy)-phenyl]-2-aza-spiro[4.5]decan-1-one] | 300 nM
CC(C)COC[C@]1(O)CC[C@@]2(CCN(c3ccc(OCC(F)(F)F)cc3)C2=O)CC1 [Example 245, (5α,8β)-8-Hydroxy-8-isobutoxymethyl-2-[4-(2,2,2-trifluoro-ethoxy)-phenyl]-2-aza-spiro[4.5]decan-1-one] | 280 nM
CC(C)COC[C@]1(O)CC[C@]2(CCN(c3ccc(OCC(F)(F)F)cc3)C2=O)CC1 [Example 246, (5α,8α)-8-Hydroxy-8-isobutoxymethyl-2-[4-(2,2,2-trifluoro-ethoxy)-phenyl]-2-aza-spiro[4.5]decan-1-one] | 640 nM
CCOC[C@]1(O)CC[C@@]2(CCN(c3ccc(O[C@@H](C)C(F)(F)F)nc3)C2=O)CC1 [Example 248, (5α,8β)-8-Ethoxymethyl-8-hydroxy-2-[6-((S)-2,2,2-trifluoro-1-methyl-ethoxy)-pyridin-3-yl]-2-aza-spiro[4.5]decan-1-one] | 340 nM
CCOC[C@]1(O)CC[C@@]2(CCN(c3ccc(O[C@@H](C)C(F)(F)F)cc3)C2=O)CC1 [Example 250, (5α,8β)-8-Ethoxymethyl-8-hydroxy-2-[4-((S)-2,2,2-trifluoro-1-methyl-ethoxy)-phenyl]-2-aza-spiro[4.5]decan-1-one] | 600 nM
CCOC[C@]1(O)CC[C@@]2(CCN(c3ccc(O[C@H](C)C(F)(F)F)cc3)C2=O)CC1 [Example 252, (5α,8β)-8-Ethoxymethyl-8-hydroxy-2-[4-((R)-2,2,2-trifluoro-1-methyl-ethoxy)-phenyl]-2-aza-spiro[4.5]decan-1-one] | 230 nM

More lines, now with the values ahead:

IC50 | Structure (SMILES)
20 nM | CCCOC[C@]1(O)CC[C@]2(CCN(c3ccc(CC)cc3)C2=O)CC1 [Example 226, (5α,8α)-2-(4-Ethyl-phenyl)-8-hydroxy-8-propoxymethyl-2-aza-spiro[4.5]decan-1-one]
20 nM | CCc1ccc(N2CC[C@]3(CC[C@@](O)(COc4ccccc4)CC3)C2=O)cc1 [Example 228, (5α,8α)-2-(4-Ethyl-phenyl)-8-hydroxy-8-phenoxymethyl-2-aza-spiro[4.5]decan-1-one]
20 nM | CCc1ccc(N2CC[C@]3(CC[C@@](O)(COCC(F)(F)F)CC3)C2=O)cc1 [Example 231, (5α,8α)-2-(4-Ethyl-phenyl)-8-hydroxy-8-(2,2,2-trifluoro-ethoxymethyl)-2-aza-spiro[4.5]decan-1-one]
20 nM | O=C1N(c2ccc(OCC(F)(F)F)cc2)CC[C@]12CC[C@@](O)(COCC(F)(F)F)CC2 [Example 233, (5α,8α)-8-Hydroxy-8-(2,2,2-trifluoro-ethoxymethyl)-2-[4-(2,2,2-trifluoro-ethoxy)-phenyl]-2-aza-spiro[4.5]decan-1-one]
40 nM | CCOC[C@]1(O)CC[C@]2(CCN(c3ccc(OCC(F)(F)F)cc3)C2=O)CC1 [Example 234, (5α,8α)-8-Ethoxymethyl-8-hydroxy-2-[4-(2,2,2-trifluoro-ethoxy)phenyl]-2-aza-spiro[4.5]decan-1-one]
20 nM | CCCOC[C@]1(O)CC[C@]2(CCN(c3ccc(OCC(F)(F)F)cc3)C2=O)CC1 [Example 236, (5α,8α)-8-Hydroxy-8-propoxymethyl-2-[4-(2,2,2-trifluoro-ethoxy)-phenyl]-2-aza-spiro[4.5]decan-1-one]
20 nM | O=C1N(c2ccc(OCC(F)(F)F)cc2)CC[C@]12CC[C@@](O)(COc1ccccc1)CC2 [Example 240, (5α,8α)-8-Hydroxy-8-phenoxymethyl-2-[4-(2,2,2-trifluoro-ethoxy)-phenyl]-2-aza-spiro[4.5]decan-1-one]
10 nM | O=C1N(c2ccc(OCC(F)(F)F)cc2)CC[C@]12CC[C@@](O)(COCc1ccccc1)CC2 [Example 242, (5α,8α)-8-Benzyloxymethyl-8-hydroxy-2-[4-(2,2,2-trifluoro-ethoxy)-phenyl]-2-aza-spiro[4.5]decan-1-one]
30 nM | O=C1N(c2ccc(OCC(F)(F)F)cc2)CC[C@]12CC[C@@](O)(COCC(F)F)CC2 [Example 244, (5α,8α)-8-(2,2-Difluoro-ethoxymethyl)-8-hydroxy-2-[4-(2,2,2-trifluoro-ethoxy)-phenyl]-2-aza-spiro[4.5]decan-1-one]
70 nM | CCOC[C@]1(O)CC[C@]2(CCN(c3ccc(OCC(F)(F)F)nc3)C2=O)CC1 [Example 247, (5α,8α)-8-Ethoxymethyl-8-hydroxy-2-[6-(2,2,2-trifluoro-ethoxy)-pyridin-3-yl]-2-aza-spiro[4.5]decan-1-one]
20 nM | CCOC[C@]1(O)CC[C@]2(CCN(c3ccc(O[C@@H](C)C(F)(F)F)nc3)C2=O)CC1 [Example 249, (5α,8α)-8-Ethoxymethyl-8-hydroxy-2-[6-((S)-2,2,2-trifluoro-1-methyl-ethoxy)-pyridin-3-yl]-2-aza-spiro[4.5]decan-1-one]
10 nM | CCOC[C@]1(O)CC[C@]2(CCN(c3ccc(O[C@@H](C)C(F)(F)F)cc3)C2=O)CC1 [Example 251, (5α,8α)-8-Ethoxymethyl-8-hydroxy-2-[4-((S)-2,2,2-trifluoro-1-methyl-ethoxy)-phenyl]-2-aza-spiro[4.5]decan-1-one]
20 nM | CCOC[C@]1(O)CC[C@]2(CCN(c3ccc(O[C@H](C)C(F)(F)F)cc3)C2=O)CC1 [Example 253, (5α,8α)-8-Ethoxymethyl-8-hydroxy-2-[4-((R)-2,2,2-trifluoro-1-methyl-ethoxy)-phenyl]-2-aza-spiro[4.5]decan-1-one]
